Test results: article PMC8708875 (Pharmaceutics, 2021)

Assays:
[1] = test system: epididymal adipose tissue and tibial skeletal muscle of WT mice; assay: mRNA expression of energy metabolism genes in tissues after ip administration (qPCR); format: in vivo, mouse; conditions: 600 µg/kg ip
Experimental: Real-time PCR (qPCR) experiments were performed to evaluate the mRNA expression levels, at basal and under stimulus, for peroxisome proliferator activator receptor gamma (PPARγ), peroxisome proliferator activator receptor alpha (PPARa), cAMP responsive element binding protein 1 (Creb1), aldolase A, fructose-bisphosphate (ALDOA), cytochrome c oxidase subunit IV isoform 1 (Cox4i1), phosphoglycerate mutase 2 (PGAM2), troponin I, skeletal, fast 2 (TNNI2), […] (TNNT3), small muscle protein X-linked (SMPX), myosin, […] (MYH1), insulin-growth factor 1 (IGF1), Glucose transporter 4 (GLUT4), and lipoprotein lipase (LPL). Primers sequences are described in Supplementary Materials (Table S1). […] Quantitative PCRs were performed using the Prism 7900 sequence detection system (Applied Biosystems, Foster City, CA, USA) with 100 nM primer and 20 ng cDNA. The expression of mRNA targets was normalized by expression of gene glyceraldehyde 3-phosphate dehydrogenase (GAPDH) or hipoxantina-guanina fosforibosiltransferase (HPRT) and expressed as relative values using the 2 DDCt method. […]
Figure 6 Ric4 stimulated mRNA expression levels of genes related to energy metabolism. WT mice were treated with vehicle (Control) or Ric4 (600 ug/kg, ip) and gene expression was evaluated by qPCR. […]

[2] = test system: Erk and Akt phosphorylation in epididymal adipose and tibial muscle tissues; assay: Erk and Akt phosphorylation in tissues after ip administration to WT mice; format: in vivo, mouse; conditions: 600 µg/kg ip, tissues collected 30 min after administration
Experimental: Western blotting experiments were performed to evaluate the expression levels of specific proteins. Briefly, cells or tissues as indicated were solubilized by directly adding RIPA buffer (50 mM Tris HCl, 150 mM NaCl, 1.0% v/v, NP-40, 0.5% w/v, sodium deoxycholate, 1.0 mM ethylenediamine tetraacetic acid, EDTA, 0.1% w/v, sodium dodecyl sulphate, SDS, and 0.01% w/v sodium azide, pH of 7.4) containing protease (P8340; Sigma Aldrich, Sao Paulo, Brazil) and phosphatase (P5726, Sigma Aldrich, Sao Paulo, Brazil) inhibitors cocktails, followed by sonication with a micro-tip for 5 s. After 30 min of incubation on ice, samples were centrifuged for 30 min at 12,000× g. Proteins from supernatants (50 µg) were separated by 10% SDS-PAGE and transferred to nitrocellulose membranes for immunoblotting with mouse monoclonal anti-phospho extracellular signal-regulated kinase 1/2 (anti-pErk; Erk 1/2 phosphorylation at Thr202-Tyr204; 1:1000; Cell Signaling, Boston, MA, USA), and rabbit polyclonal anti-total extracellular signal-regulated kinase 1/2 (Erk; anti-total Erk 1/2, 1:1000; Cell Signaling, Boston, MA, USA) antibodies. Blots were also treated with rabbit anti-phospho Akt (S473) (anti-pAkt, 1:1000) and mouse polyclonal anti-total Akt (anti-Akt, 1:1000) (Cell Signaling, Boston, MA, USA) and anti-myogenin (1:1000, Abcam, UK). Protein normalization indicated was performed using rabbit polyclonal anti-glyceraldehyde 3-phosphate dehydrogenase (GAPDH; 1:2000; Proteimax Biotechnology, São Paulo, Brazil) antibodies or anti-β-actin mouse antiserum (1:2000; Sigma Aldrich, Sao Paulo, Brazil). Blots were incubated with horseradish peroxidase-conjugated secondary antibodies for 3 h at room temperature. Western blot bands were visualized with Super-Signal West Pico Chemiluminescent substrate (Thermo Scientific) using the ChemiDoc™ MP Imaging System (BioRad, Hercules, CA, USA), and quantified using ImageJ 1.49 software. All results are expressed as the means ± standard error of the mean (SEM). The statistical comparisons were performed using Student’s t-test or analysis of variance (ANOVA), followed by ad-hoc Tukey’s test (n = 7). Data were statistically analyzed with GraphPad Prism software (GraphPad Software Inc, San Diego, CA, USA).
Figure 5 Western blotting for ERK and AKT in epididymal adipose and tibial muscle tissues following ip administration of Ric4 to WT mice. Mice were treated ip with vehicle (Control) or Ric4 (600 µg/kg). Tissues were collected 30 min after the Ric4 administration and processed for Western blots as detailed in Section 2.5. The phosphorylation of either ERK or AKT in epididymal adipose tissue (A,B) and tibial muscle tissue (C,D) were analyzed using antibodies anti-pErk (A,C) or anti-pAkt (B,D). […]

LASVSTVLTSKYR [Ric4, intracellular peptide derived from hemoglobin alpha subunit, last 13 C-terminal amino acids]
GLUT4 mRNA levels in epididymal adipose tissue [1]: increased
expression levels of genes related to energy metabolism in epididymal adipose tissue (LPL, PPARγ, PPARa, GLUT4, IGF1) [1]: stimulated the expression levels
Akt phosphorylation in epididymal adipose tissue [2]: increased
Akt phosphorylation in tibial skeletal muscle [2]: not Akt phosphorylation
Erk phosphorylation in epididymal adipose tissue [2]: increased
Erk phosphorylation in tibial skeletal muscle [2]: increased
